Eleven molecules from patent US8580831B2, “Fluorinated aminotriazole derivatives” (Actelion Pharmaceuticals Ltd., priority 2009, dated 2013) can be followed below.

For orientation: pEC50 means the negative decadic logarithm of the EC50, by convention in mol/L.

pEC50: −log10 of the molar value.

The target in one data set is T1, human ALX receptor (Homo sapiens, UniProt P25090).
T1 construct: expressed in transfected cells; host or cells: HEK293 (HEK293-hALXR-Ga16)
T1 sequence (P25090 1-351): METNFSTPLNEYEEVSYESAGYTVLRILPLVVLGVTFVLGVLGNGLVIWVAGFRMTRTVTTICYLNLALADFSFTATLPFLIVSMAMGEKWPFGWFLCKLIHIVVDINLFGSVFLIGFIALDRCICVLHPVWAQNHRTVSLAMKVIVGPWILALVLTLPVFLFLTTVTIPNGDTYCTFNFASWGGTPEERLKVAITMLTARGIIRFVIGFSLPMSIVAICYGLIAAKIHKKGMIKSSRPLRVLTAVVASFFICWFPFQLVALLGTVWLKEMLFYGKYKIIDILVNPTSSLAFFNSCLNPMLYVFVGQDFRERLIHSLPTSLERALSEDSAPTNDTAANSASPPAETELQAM
The experiment in a line: Intracellular calcium measurements (FLIPR), ALX receptor agonistic activity. The conditions noted are these: HEK293-hALXR-Ga16 cells, calcium flux, normalized to WKYMVm 10 nM; read-out: EC50 (agonistic activity with respect to the ALX receptor). The format is cell-based. The method, then: The ALX receptor agonistic activity of the compounds of formula (I) is determined in accordance with the following experimental method.
Intracellular Calcium Measurements:
Cells expressing recombinant human ALX receptor and the G-protein Ga16 (HEK293-hALXR-Ga16) were grown to 80% confluency in Growing Medium (GM). Cells were detached from culture dishes with a cell dissociation buffer (Invitrogen, 13151-014), and collected by centrifugation at 1′000 rpm at rt for 5 min in Assay Buffer (AB) (equal parts of Hank's BSS (Gibco, 14065-049) and DMEM without Phenol Red (Gibco, 11880-028)). After 60 min incubation at 37° C. under 5% CO2 in AB supplemented with 1 μM Fluo-4 (AM) (Invitrogen, F14202) and 20 mM HEPES (Gibco, 15630-056), the cells were washed and resuspended in AB. They were then seeded onto 384-well FLIPR assay plates (Greiner, 781091) at 50′000 cells in 70 μl per well and sedimented by centrifugation at 1′000 rpm for 1 min. Stock solutions of test compounds were made up at a concentration of 10 mM in DMSO, and serially diluted in AB to concentrations required for activation dose response curves. WKYMVm (Phoenix Peptides) was used as a reference agonist. A FLIPR Tetra instrument (Molecular Devices) was operated according to the manufacturer's standard instructions, adding 4 μl of test compound dissolved at 10 mM in DMSO and diluted prior to the experiment in assay buffer to obtain the desired final concentration. Changes in fluorescence were monitored before and after the addition of test compounds at lex=488 nm and lem=540 nm. Emission peak values above base level after compounds addition were exported after base line subtraction. Values were normalized to high-level control (WKYMVm compound, 10 nM final concentration) after subtraction of the base line value (AB addition).
For orientation: A change in cytosolic calcium serves as a functional read-out for many receptors and channels.

Data set [1] has as its system proteins of human liver microsomes (HLM). Put plainly: Covalent binding between reactive metabolites and proteins using human liver microsomes. The format is in vitro ADME. As for the experimental part:
Assay for Covalent Binding Between Reactive Metabolites and Proteins Using Human Liver Microsomes
The objective of the described covalent binding assay is to determine the amount of covalent binding between reactive metabolites and proteins of human liver microsomes (HLM) per hour following incubation in the presence of an NADPH regenerating system. The measured covalent binding rate is expressed in pmol bound drug equivalent/mg protein/h. It is a well-known advantage if compounds have a low tendency to bind covalently to proteins.
The radiolabelled compounds (^3H or ^14C) were incubated at a concentration of 10 μM in a single 96 well plate with 1.0 mg/mL of human liver microsomes in 0.1 M phosphate buffer (pH 7.4). To this end, a volume of 2.5 μL 1 mM stock solution prepared in the respective solvent (ethanol) was added to a final volume of 250 μL. Incubations were performed in the absence or presence of the NADPH-regenerating system with glucose-6-phosphate dehydrogenase (20 IU/ml dehydrogenase, 25 μl with 11 mM NADP sodium salt, 100 mM glucose-6-phosphate disodium salt, 100 mM MgCl2 in 0.1 M Tris buffer, pH 7.4) and additionally in the absence or presence of 5 mM GSH to trap reactive intermediates. An initial blank value without NADPH without incubation was also determined to determine unspecific rapid binding. Reactions were initiated by addition of 25 μL of an NADPH-regenerating system and terminated after one hour by adding 200 μL of the incubation mixture on a multiscreen deep well solvinert 96 hydrophobic PTFE filter plate (Millipore, Zug, Switzerland) containing 260 μL of ice-cold acetonitrile. The precipitation of microsomal proteins was completed by shaking the plate at 600 rpm at a temperature of 15° C. for 15 min. Finally, the precipitated incubation was stored at 4° C. for 15 min in the fridge. Proteins and filtrates were separated by centrifugation at 1800 g for 20 min at 10° C. The protein pellet was washed to remove unspecific binding with 800 μL of methanol/0.1% sulfuric acid (v/v) by centrifugation at 1500 g, 10° C. and 2 min. The washing step was repeated six times. The washed protein pellet was redissolved by addition of 500 μL of aqueous 0.1% (w/v) NaOH/1% (w/v) SDS. The filter plate was shaken at 400 rpm for 45 min at 60° C. and centrifugated at 2000 g for 20 min at 35° C. This step was repeated once and the protein solutions were combined.
For the determination of total radioactivity, an aliquot of 400 μL protein solution was mixed with 4 mL of liquid scintillation cocktail (Irga Safe plus, Perkin Elmer, Zurich, Switzerland) and analyzed using a Tricarb 2300 TR liquid scintillation analyzer (Perkin Elmer) with luminescence correction and on-line quenching correction by means of an external standard (^133Ba). For the determination of total protein content, an aliquot of 20 μL protein solution was analyzed using the BCA protein assay kit (Perbio Science Switzerland SA, Lausanne, Switzerland). The amount of covalent binding to microsomal proteins was calculated as follows: Dividing the determined amount of bound drug equivalent with NADPH (background subtracted by the amount of bound drug equivalent without NADPH) by the calculated amount of protein of redissolved washed protein pellet in each well gives the amount of bound drug equivalent in pmol/mg protein per hour.
Background: Liver microsomes are vesicles of endoplasmic reticulum, rich in cytochrome P450 enzymes.

Consider `Cc1cccc(-c2oc(C)nc2C(=O)Nc2cnn(Cc3nc(C(C)(F)F)co3)n2)c1` [Example 31, 2-Methyl-5-m-tolyl-oxazole-4-carboxylic acid {2-[4-(1,1-difluoro-ethyl)-oxazol-2-ylmethyl]-2H-[1,2,3]triazol-4-yl}-amide], for which, at human ALX receptor, the pEC50 is 8.62. For the same molecule, the “Covalent binding profile compared to compounds of WO 2009/077990” value in data set [1] (in words, versus examples 18 and 75 of WO 2009/077990) was “superior covalent binding profile”. Besides, the “Covalent binding, HLM with NADPH and GSH” value in data set [1] (tritiated compound 10 μM, 1.0 mg/mL HLM, 1 h, with NADPH and 5 mM GSH) stood at 28 pmol/mg protein per hour. Further, the “Covalent binding, HLM with NADPH” value in data set [1] (tritiated compound 10 μM, 1.0 mg/mL HLM, 1 h, with NADPH-regenerating system) worked out at 22 pmol/mg protein per hour. Also, the “Covalent binding, HLM without NADPH” value in data set [1] (tritiated compound 10 μM, 1.0 mg/mL HLM, 1 h, without NADPH) turned out to be 3 pmol/mg protein per hour. Further, the “Covalent binding, HLM with NADPH (background corrected as described above) [amount of bound drug equivalent]” value in data set [1] (tritiated compound 10 μM, 1.0 mg/mL HLM, 1 h, value without NADPH subtracted) is 19 pmol/mg protein per hour. For `Cc1nc(C(=O)Nc2cnn(Cc3ccc(C(C)(F)F)o3)n2)c(-c2cccc(Cl)c2)o1` [Example 15, 5-(3-Chloro-phenyl)-2-methyl-oxazole-4-carboxylic acid{2-[5-(1,1-difluoro-ethyl)-furan-2-ylmethyl]-2H-[1,2,3]triazol-4-yl}-amide], the pEC50 at human ALX receptor is 7.64. Turning to `CC(F)(F)c1ccc(Cn2ncc(NC(=O)c3ncoc3-c3ccccc3)n2)o1` [Example 28, 5-Phenyl-oxazole-4-carboxylic acid {2-[5-(1,1-difluoro-ethyl)-furan-2-ylmethyl]-2H-[1,2,3]triazol-4-yl}-amide], the pEC50 on human ALX receptor was 8.22.

`CC(F)(F)c1ccc(Cn2ncc(NC(=O)c3ncoc3-c3cccc(Cl)c3)n2)o1` [Example 7, 5-(3-Chloro-phenyl)-oxazole-4-carboxylic acid{2-[5-(1,1-difluoro-ethyl)-furan-2-ylmethyl]-2H-[1,2,3]triazol-4-yl}-amide]: at human ALX receptor, the pEC50 was 7.77.

On to `Cc1nc(C(=O)Nc2cnn(Cc3ccc(C(C)(F)F)o3)n2)c(-c2cccc(C(F)(F)F)c2)o1` [Example 24, 2-Methyl-5-(3-trifluoromethyl-phenyl)-oxazole-4-carboxylic acid {2-[5-(1,1-difluoro-ethyl)-furan-2-ylmethyl]-2H-[1,2,3]triazol-4-yl}-amide], for which the pEC50 on human ALX receptor is 8.68.

Consider `CN(C)c1cccc(-c2ocnc2C(=O)Nc2cnn(Cc3nc(C(C)(F)F)cs3)n2)c1` [Example 22, 5-(3-Dimethylamino-phenyl)-oxazole-4-carboxylic acid {2-[4-(1,1-difluoro-ethyl)-thiazol-2-ylmethyl]-2H-[1,2,3]triazol-4-yl}-amide], for which the pEC50 on human ALX receptor is 7.28. On to `Cc1nc(C(=O)Nc2cnn(Cc3ccc(C(C)(F)F)o3)n2)c(-c2cccc(OC(F)(F)F)c2)o1` [Example 27, 2-Methyl-5-(3-trifluoromethoxy-phenyl)-oxazole-4-carboxylic acid {2-[5-(1,1-difluoro-ethyl)-furan-2-ylmethyl]-2H-[1,2,3]triazol-4-yl}-amide], for which the pEC50 on human ALX receptor was 7.23. Regarding `Cc1nc(C(=O)Nc2cnn(Cc3nc(C(C)(F)F)cs3)n2)c(-c2cccc(Cl)c2)o1` [Example 29, 5-(3-Chloro-phenyl)-2-methyl-oxazole-4-carboxylic acid {2-[4-(1,1-difluoro-ethyl)-thiazol-2-ylmethyl]-2H-[1,2,3]triazol-4-yl}-amide], the pEC50 at human ALX receptor was 8.25. `CC(F)(F)c1ccc(Cn2ncc(NC(=O)c3ncoc3-c3cccc(F)c3)n2)o1` [Example 11, 5-(3-Fluoro-phenyl)-oxazole-4-carboxylic acid {2-[5-(1,1-difluoro-ethyl)-furan-2-ylmethyl]-2H-[1,2,3]triazol-4-yl}-amide]: the pEC50 on human ALX receptor is 8.00. The same measure, in the same setting: with `Cc1nc(C(=O)Nc2cnn(Cc3ccc(C(C)(F)F)o3)n2)c(-c2cc(F)cc(F)c2)o1` [Example 18, 5-(3,5-Difluoro-phenyl)-2-methyl-oxazole-4-carboxylic acid {2-[5-(1,1-difluoro-ethyl)-furan-2-ylmethyl]-2H-[1,2,3]triazol-4-yl}-amide] the figure was 6.18.

`CC(F)(F)c1csc(Cn2ncc(NC(=O)c3ncoc3-c3cccc(Cl)c3)n2)n1` [Example 12, 5-(3-Chloro-phenyl)-oxazole-4-carboxylic acid{2-[4-(1,1-difluoro-ethyl)-thiazol-2-ylmethyl]-2H-[1,2,3]triazol-4-yl}-amide]: at human ALX receptor, the pEC50 is 7.34.
